Structures can show the parent of a compound that is named as a salt. Where two headings read alike, the source gives them in different places.
What was measured:
[1] = system: aldosterone (DCA)-like activity; settings: cited from earlier work
[2] = system: Acetic acid-induced ulcer; assay: Acetic acid-induced ulcer; assay type: in vivo, male SD-strain rats; settings: for Percent inhibition / Ulcer index (mean ± standard deviation): once a day for 10 days; for significance of inhibition: rat, in vivo
Description: In the following test examples, male SD-strain rats (body weight 200 to 250 g) were used as experimental animals, and a sodium salt of the compound of formula (I) dissolved in distilled water was used as the compound of this invention. Acetic acid-induced ulcer: Rats, 5 or 10 per group, were used. After they were anesthetized with pentobarbital sodium, the abdomen was incised, and 0.05 ml of 10% acetic acid was injected into the mucous membrane from the serous layer at the boundary portion in the anterior wall between the body of the stomach and the pylorus part. The abdomen was then sutured. Each of the test drugs shown in Table 2 was intraperitoneally or orally administered once a day for 10 consecutive days beginning with the second day after the above operation. On the 15th day after the operation, the stomach was excised and 12 ml of 1% formalin was injected into it. Then, the stomach was dipped in 1% formalin for 10 minutes, and cut open along the greater curvature. The area of an ulcer generated was measured, and the ulcer index was calculated on the basis of the following standard. |0 0 |1-8 1 | 9-24 2 |25-63 3 | 64-120 4 |121-168 5 |>168 6 The tissue respiration activator used was a calf's blood extract preparation administered at a rate of 0.5 ml per 100 g of body weight (this applies to all tissue respiration activators appearing hereinafter).

Stress ulcer = Stress ulcer (water immersion); assay type: in vivo, male SD-strain rats
Description: (§1) In the following test examples, male SD-strain rats (body weight 200 to 250 g) were used as experimental animals, and a sodium salt of the compound of formula (I) dissolved in distilled water was used as the compound of this invention.
(§2) The tissue respiration activator used was a calf's blood extract preparation administered at a rate of 0.5 ml per 100 g of body weight (this applies to all tissue respiration activators appearing hereinafter).
Rats, 5 per group, were used. They were put in wire gauze stress cages (made by Natsume Seisakusho) in an upstanding position. The cages were put in a water bath kept constantly at 23° C., and the rats were immersed to a level of the sternal projection. Each of the drugs shown in Table 3 was administered to the rats intraperitoneally or orally 15 minutes before water immersion. Seven hours after the administration, the rats were knocked out to death. The stomach was excised, and the length of a stress ulcer (erosion) was measured.

[3] = system: Indomethacin-induced ulcer; assay: Indomethacin-induced ulcer; assay type: in vivo, male SD-strain rats
Description: as §1, §2
Indomethacin-induced ulcer:
Rats, 5 per group, were used. They were caused to fast for 24 hours while giving them only water. Then, indomethacin was subcutaneously injected to the rats in a dose of 30 mg/kg. Eight hours later, the rats were killed, and the stomach was excised and treated in the same way as in Test Example 3. The length of the erosion generated was measured. Each of the test drugs shown in Table 4 was administered to the rats intraperitoneally or orally 10 minutes before the administration of iodomethacin.

[4] = system: Shay's ulcer (ulcer induced by ligation of the pylorus); assay: Pylorus ligating method (Shay's ulcer); assay type: in vivo, male SD-strain rats; set-up: Ulcer index (mean ± standard deviation): scale not given here; settings: for minimal effective dose: Rattus norvegicus, read-out: positively effective dose
Description: as §1
Pylorus ligating method (Shay's ulcer):
Rats, 10 per group, were used, and allowed to fast for 48 hours in separate cages while giving them only water. Pentobarbital sodium was injected intraperitoneally to the rats in a dose of 5 mg per rat. Under anesthesia, the abdomen of each rat was incised, and the portion leading from the pylorus to the duodenum was ligated. Then, the abdomen was sutered. The rats were then left for 19 hours without giving them food and water. Then, under ether anesthesia, the rats were killed by removing the spinal cord. The stomach was excised, and the amount of the gastric juice was measured. The stomach was then cut open along its greater curvature, and placed on a cork plate. The area of an ulcer generated at the anterior stomach was measured by means of an Olympus stereoscope (magnification 10×), and the ulcer index was calculated on the basis of the following criteria.
The test compound of the invention was injected immediately after the ligation, or orally administered 30 minutes before the ligation. To a control group, physiological saline was given at a rate of 1 ml per 100 g of body weight.

[5] = Toxicity (LD50, method of Reed and Muench); settings: rat, in vivo, rats observed for 7 days
Description: The LD50 value was calculated by the method of Reed and Muench.

[6] = system: Delayed-type cellular immunity; assay: Delayed-type cellular immunity activating action (sheep red blood cells, foot pad thickness); assay type: in vivo, mice; settings: day 8
Description: Mice, 10 per group, were used. Sheep red blood cells (1.0×10^7) were subcutaneously inoculated in the right foot pad of each mouse. The day of inoculation was taken as day 0, and on the same day, the sodium salt of the compound of formula (I) was administered to the mice intraperitoneally or orally. On day 7, sheep red blood cells (1.0×10^7) were subcutaneously inoculated in the left foot pad of each mouse, and on day 8, the thickness of each foot pad was measured.

[7] = oral, 50 mg/kg, P < 0.05 (cetraxate), P < 0.0001 (compound of the invention)
[8] = oral, 300 mg/kg, P < 0.01 (cetraxate), P < 0.001 (compound of the invention)
[9] = oral, 300 mg/kg, P < 0.05 (cetraxate), P < 0.001 (compound of the invention)

CC1(C)[C@@H](O)CC[C@]2(C)[C@H]3CC=C4[C@@H]5C[C@@](C)(C(=O)O)CC[C@]5(C)CC[C@@]4(C)[C@]3(C)CC[C@@H]12 [11-deoxoglycyrrhetinic acid]
DCA activity ([1]; Baran et al., J. Med. Chem. 1974): does not substantially show the DCA activity

CC1(C)[C@@H](OC(=O)CCC(=O)O)CC[C@]2(C)[C@H]3C(=O)C=C4[C@@H]5C[C@@](C)(C(=O)O)CC[C@]5(C)CC[C@@]4(C)[C@]3(C)CC[C@@H]12 [Carbenoxolone sodium, glycyrrhetinic acid hydrogen succinate sodium salt, reference compound]
Percent inhibition ([2]; oral, 300 mg/kg): 12.6%

NC[C@H]1CC[C@H](C(=O)Oc2ccc(CCC(=O)O)cc2)CC1 [Cetraxate hydrochloride, cetraxate hydrochloride, reference compound]
Percent inhibition ([2]; intraperitoneal, 20 mg/kg): 49.5%
Ulcer index (mean ± standard deviation) ([2]; intraperitoneal, 20 mg/kg): 1.60 ± 0.245
Ulcer index (mean ± standard deviation) ([2]; oral, 50 mg/kg): 1.90 ± 0.568
Percent inhibition [2, 7]: 29.6%
significance of inhibition [2]: significant inhibitions at P<0.001
Length of the erosion (mean ± standard deviation) (Stress ulcer; intraperitoneal, 200 mg/kg): 56.08 ± 12.89 mm
Percent inhibition (Stress ulcer; intraperitoneal, 200 mg/kg): 13.5%
Percent inhibition (Stress ulcer; oral, 300 mg/kg): 36.6%
Length of the erosion (mean ± standard deviation) (Stress ulcer; [8]): 48.6 ± 3.90 mm
Length of the erosion (mean ± standard deviation) ([3]; intraperitoneal, 200 mg/kg): 38.94 ± 8.22 mm
Percent inhibition ([3]; intraperitoneal, 200 mg/kg): 44.3%
Length of the erosion (mean ± standard deviation) ([3]; oral, 300 mg/kg): 31.58 ± 7.59 mm
Percent inhibition [3, 9]: 43.7%

CC1(C)[C@@H](OC(=O)/C=C\C(=O)O)CC[C@]2(C)[C@H]3CC=C4[C@@H]5C[C@@](C)(C(=O)O)CC[C@]5(C)CC[C@@]4(C)[C@]3(C)CC[C@@H]12 [Compound of the invention, sodium salt of 11-deoxoglycyrrhetinic acid hydrogen maleate]
minimal effective dose ([4]; ip, intraperitoneal): ~10 mg/kg
minimal effective dose ([4]; oral): ~300 mg/kg
Percent inhibition ([4]; intraperitoneal, 5 mg/kg): 17.1%
Ulcer index (mean ± standard deviation) ([4]; intraperitoneal, 5 mg/kg): 3.4 ± 0.84
Percent inhibition ([4]; intraperitoneal, 10 mg/kg): 65.9%
Ulcer index (mean ± standard deviation) ([4]; intraperitoneal, 10 mg/kg, P < 0.01): 1.4 ± 0.51
Percent inhibition ([4]; intraperitoneal, 20 mg/kg): 70.7%
Ulcer index (mean ± standard deviation) ([4]; intraperitoneal, 20 mg/kg, P < 0.01): 1.2 ± 0.20
Percent inhibition ([4]; intraperitoneal, 50 mg/kg): 92.7%
Ulcer index (mean ± standard deviation) ([4]; intraperitoneal, 50 mg/kg, P < 0.001): 0.3 ± 0.21
Percent inhibition ([4]; intravenous, 40 mg/kg): 90.4%
Ulcer index (mean ± standard deviation) ([4]; intravenous, 40 mg/kg, P < 0.001): 0.4 ± 0.19
Percent inhibition ([4]; oral, 100 mg/kg): 36.0%
Ulcer index (mean ± standard deviation) ([4]; oral, 100 mg/kg): 3.2 ± 0.97
Percent inhibition ([4]; oral, 300 mg/kg): 80.0%
Ulcer index (mean ± standard deviation) ([4]; oral, 300 mg/kg, P < 0.01): 1.0 ± 1.01
Percent inhibition ([4]; oral, 500 mg/kg): 84.0%
Ulcer index (mean ± standard deviation) ([4]; oral, 500 mg/kg, P < 0.001): 0.8 ± 0.49
effect against ulcer induced by ligation of the pylorus ([4]; rat, in vivo): effective against ulcer induced by ligation of the pylorus
Percent inhibition ([4]; subcutaneous, 70 mg/kg): 84.6%
Ulcer index (mean ± standard deviation) ([4]; subcutaneous, 70 mg/kg, P < 0.001): 0.8 ± 0.90
Percent inhibition ([2]; intraperitoneal, 2 mg/kg): 54.8%
Ulcer index (mean ± standard deviation) ([2]; intraperitoneal, 2 mg/kg, P < 0.001): 1.40 ± 0.247
Ulcer index (mean ± standard deviation) ([2]; oral, 10 mg/kg): 1.60 ± 0.699
Percent inhibition ([2]; oral, 10 mg/kg, P < 0.001): 40.7%
Ulcer index (mean ± standard deviation) ([2]; oral, 30 mg/kg): 1.40 ± 0.699
Percent inhibition ([2]; oral, 30 mg/kg, P < 0.001): 48.1%
Ulcer index (mean ± standard deviation) ([2]; oral, 50 mg/kg): 1.00 ± 0.817
Percent inhibition [2, 7]: 63.0%
significance of inhibition [2]: significant inhibitions at P<0.001
rank of percent inhibition ([2]; versus cetraxate hydrochloride and tissue respiration activator): highest
LD50 at 168 h ([5]; ip, intraperitoneal): 67.8 mg/kg
LD50 at 168 h ([5]; sc, subcutaneous): 98.3 mg/kg
LD50 at 168 h ([5]; intravenous): 54.2 mg/kg
LD50 at 168 h ([5]; oral): > 6000 mg/kg
Ratio to the control group ([6]; 5 mm/kg (so in the source), intraperitoneal): 1.18
Ratio to the control group ([6]; 15 mm/kg (so in the source), intraperitoneal): 1.49
Ratio to the control group ([6]; 100 mm/kg (so in the source), oral): 1.40
Length of the erosion (mean ± standard deviation) (Stress ulcer; intraperitoneal, 20 mg/kg): 19.25 ± 0.95 mm
Percent inhibition (Stress ulcer; intraperitoneal, 20 mg/kg): 70.3%
Percent inhibition (Stress ulcer; oral, 100 mg/kg): 87.5%
Length of the erosion (mean ± standard deviation) (Stress ulcer; oral, 100 mg/kg, P < 0.001): 9.6 ± 4.80 mm
Percent inhibition (Stress ulcer; oral, 300 mg/kg): 100.0%
Length of the erosion (mean ± standard deviation) (Stress ulcer; [8]): 0.0 ± 0.00 mm
Percent inhibition (Stress ulcer; oral, 500 mg/kg): 100.0%
Length of the erosion (mean ± standard deviation) (Stress ulcer; oral, 500 mg/kg, P < 0.001): 0.0 ± 0.00 mm
Length of the erosion (mean ± standard deviation) ([3]; intraperitoneal, 20 mg/kg): 17.69 ± 8.08 mm
Percent inhibition ([3]; intraperitoneal, 20 mg/kg): 74.7%
Length of the erosion (mean ± standard deviation) ([3]; oral, 100 mg/kg): 9.37 ± 3.22 mm
Percent inhibition ([3]; oral, 100 mg/kg, P < 0.001): 83.3%
Length of the erosion (mean ± standard deviation) ([3]; oral, 300 mg/kg): 7.22 ± 3.06 mm
Percent inhibition [3, 9]: 87.1%
Length of the erosion (mean ± standard deviation) ([3]; oral, 500 mg/kg): 5.63 ± 3.92 mm
Percent inhibition ([3]; oral, 500 mg/kg, P < 0.001): 90.0%

CC1(C)[C@@H](O)CC[C@]2(C)[C@H]3C(=O)C=C4[C@@H]5C[C@@](C)(C(=O)O)CC[C@]5(C)CC[C@@]4(C)[C@]3(C)CC[C@@H]12 [glycyrrhetinic acid]
aldosterone (DCA)-like activity, sodium retention and potassium excretion [1]: have an aldosterone (DCA)-like activity and promote sodium retention and potassium excretion

— patent publication US4448788A, “11-Deoxoglycyrrhetinic acid hydrogen maleate, process for its production, and its use as a medicine” (priority 1981, dated 1984)
